# Legend:
# Assay type in all cases: in vivo
# [1] = system: Diabrotica balteata; assay: Diabrotica balteata spray test; conditions: 160 μg/well, wheat seeds, after 7 days; for pest or weed control at 160 µg/disc, 160 µg/well: Diabrotica balteata, 168 h, read-out: efficacy (seedlings grown)
# Experimental: Diabrotica balteata—Spray Test
# (§1) To produce a suitable preparation of active compound, 1 part by weight of active compound is mixed with the stated amount of solvent, and the concentrate is diluted with water, containing an emulsifier concentration of 1000 ppm, to the desired concentration. Further test concentrations are prepared by dilution with emulsifier containing water.
# Soaked wheat seeds (Triticum aestivum) are placed in a multiple well plate filled with agar and some water and are incubated for 1 day to germinate (5 seeds per well). The germinated wheat seeds are sprayed with a test solution containing the desired concentration of the active ingredient. Afterwards each unit is infected with 10-20 larvae of the banded cucumber beetle (Diabrotica balteata).
# After 7 days efficacy in % is determined. 100% means all the seedlings have grown up like in the untreated, uninfected control; 0% means none of the seedlings have grown.
# [2] = system: Ctenocephalides felis; assay: Ctenocephalides felis oral test; conditions: Ctenocephalides felis, in Bos taurus, po, 48 h
# Experimental: Ctenocephalides felis—Oral Test
# (§2) Solvent: dimethyl sulfoxide
# To produce a suitable preparation of active compound, 10 mg of active compound are dissolved in 0.5 ml solvent, and the concentrate is diluted with cattle blood to the desired concentration.
# Approximately 20 adult unfed cat fleas (Ctenocephalides felis) are placed in flea chambers. The blood chamber, sealed with parafilm on the bottom, are filled with cattle blood supplied with compound solution and placed on the gauze covered top of the flea chamber, so that the fleas are able to suck the blood. The blood chamber is heated to 37° C. whereas the flea chamber is kept at room temperature.
# After 2 days mortality in % is determined. 100% means all the fleas have been killed; 0% means none of the fleas have been killed.
# [3] = system: Ctenocephalides felis; assay: Ctenocephalides felis in-vitro contact test adult cat flea; conditions: 5 μg/cm^2 (=500 g/ha), after 48 hours
# Experimental: Ctenocephalides felis—In-Vitro Contact Test Adult Cat Flea
# 9 mg compound is solved in 1 ml acetone and diluted with acetone to the desired concentration. 250 μl of the test solution is filled in 25 ml glass test tubes and homogeneously distributed on the inner walls by rotation and tilting on a shaking device (2 h at 30 rpm). With a compound concentration of 900 ppm, an inner surface of 44.7 cm^2 and a homogeneous distribution, a dose of 5 μg/cm^2 is achieved.
# After the solvent has evaporated, each test tube is filled with 5-10 adult cat fleas (Ctenocephalides felis), closed with a perforated lid and incubated in a lying position at room temperature and relative humidity. After 48 hours efficacy is determined. The fleas are patted on the ground of the tubes and are incubated on a heating plate at 45-50° C. for at most 5 minutes. Immotile or uncoordinated moving fleas, which are not able to escape the heat by climbing upwards, are marked as dead or moribund.
# An efficacy of 100% means all fleas are dead or moribund; 0% means no fleas are dead or moribund.
# [4] = system: Myzus persicae; assay: Myzus persicae oral test; conditions: 120 h
# Experimental: To produce a suitable preparation of active compound, 1 part by weight of active compound is mixed with the stated amount of solvent, and the concentrate is diluted with water to the desired concentration.
# 50 μl compound solution is filled in microtiter plates and 150 μl IPL41 insect medium (33%+15% sugar) is added to obtain a total volume of 200 μl per well. Afterwards the plates are sealed with parafilm through which a mixed population of the green peach aphid (Myzus persicae) can suck on the compound preparation.
# After 5 days mortality in % is determined. 100% means all aphids have been killed and 0% means none of the aphids have been killed.
# [5] = system: Nezara viridula; assay: Nezara viridula spray test; conditions: in Hordeum vulgare, 96 h
# Experimental: Nezara viridula—Spray Test
# as §1
# Barley plants (Hordeum vulgare) infested with larvae of the southern green stink bug (Nezara viridula) are sprayed with a test solution containing the desired concentration of the active ingredient.
# After 4 days mortality in % is determined. 100% means all the stink bugs have been killed; 0% means none of the stink bugs have been killed.
# [6] = system: Boophilus microplus; assay: Boophilus microplus injection test; conditions: 20 μg/animal, egg deposition after 7 days; for pest or weed control at 0.02 mg: Rhipicephalus microplus, 168 h, read-out: efficacy (infertile eggs)
# Experimental: Boophilus microplus—Injection Test
# as §2
# To produce a suitable preparation of active compound, 10 mg of active compound are dissolved in 0.5 ml solvent, and the concentrate is diluted with solvent to the desired concentration.
# Five adult engorged female ticks (Boophilus microplus) are injected with 1 μl compound solution into the abdomen. The ticks are transferred into replica plates and incubated in a climate chamber.
# After 7 days egg deposition of fertile eggs is monitored. Eggs where fertility is not visible are stored in a climate chamber till hatching after about 42 days. An efficacy of 100% means all eggs are infertile; 0% means all eggs are fertile.
# [7] = system: Aedes aegypti strain MONHEIM; assay: Aedes aegypti test (AEDSAE surface treatment & contact assay); conditions: surface concentration 20 mg/m^2, 30 minutes exposure, 24 hours after contact, read-out: efficacy (mortality)
# Experimental: Aedes aegypti Test (AEDSAE Surface Treatment & Contact Assay)
# (§3) Solvent: Aceton+2000 ppm rapeseed oil methyl ester (RME)
# (§4) In order to produce a sufficient, active ingredient containing solution it is necessary to solve the test-compound in the solvent-mix (Acetone at 2 mg/ml/RME 2000 ppm). This solution is pipetted onto a glazed tile and after evaporation of the Acetone, adult mosquitoes of the species Aedes aegypti strain MONHEIM are placed onto the dried surface. The exposure time is 30 minutes.
# (§5) Mortality in percent (%) is determined 24 hours after contact to the treated surface. 100% mortality means that all test-insects are dead, whereas 0% means that not a single insect died.
# [8] = system: Spodoptera frugiperda; assay: Spodoptera frugiperda spray test; conditions: in Zea mays, 168 h
# Experimental: Spodoptera frugiperda—Spray Test
# as §1, with “solvents” for “solvent,”, “and” for “and the concentrate”
# Maize (Zea mays) leaf sections are sprayed with a preparation of the active ingredient of the desired concentration. Once dry, the leaf sections are infested with fall armyworm larvae (Spodoptera frugiperda).
# After 7 days mortality in % is determined. 100% means all caterpillars have been killed and 0% means none of the caterpillars have been killed.
# [9] = system: Culex quinquefasciatus strain P00; assay: Culex quinquefasciatus test (CULXFA surface treatment & contact assay); conditions: surface concentration 20 mg/m^2, 30 minutes exposure, 24 hours after contact, read-out: efficacy (mortality)
# Experimental: Culex quinquefasciatus Test (CULXFA Surface Treatment & Contact Assay)
# as §3
# as §4, with “Culex quinquefasciatus” for “Aedes aegypti”, “P00” for “MONHEIM”
# as §5
smiles,measurement,setting,value
CC(c1ncnn1-c1ncccn1)N(CC1CC1)C(=O)c1cc(Cl)cc(C(=O)NC2CC2)c1 (stereo not drawn) [Example I-007],"pest or weed control at 160 µg/disc, 160 µg/well",[1],100%
same,mortality at 100 ppm,[2],100%
same,"pest or weed control at 5 µg/cm2, 5 µg/cm2","[3]; Ctenocephalides felis, read-out: efficacy (fleas dead or moribund)",100%
same,mortality at 4 ppm,[4],100%
same,mortality at 20 ppm,[4],100%
same,mortality at 500 g/ha,[5],100%
CC(c1ncnn1-c1ncccn1)N(CC1CC1)C(=O)Cc1cc(Cl)cc(C(F)(F)F)c1 (stereo not drawn) [Example I-011],"pest or weed control at 160 µg/disc, 160 µg/well",[1],100%
CC(c1ncnn1-c1ncccn1)N(CC1CC1)C(=O)c1cc(Cl)ccc1Cl (stereo not drawn) [Example I-014],"pest or weed control at 160 µg/disc, 160 µg/well",[1],100%
CC(NC(=O)c1cc(Cl)cc(-n2cccn2)c1)c1ncnn1-c1ncccn1 (stereo not drawn) [Example I-048],"pest or weed control at 160 µg/disc, 160 µg/well",[1],100%
same,mortality at 100 ppm,[2],100%
same,mortality at 4 ppm,[4],100%
same,pest or weed control at 0.02 mg,[6],100%
same,mortality at 20 mg/m2,[7],90 to 100%
"C[C@H](NC(=O)c1cc(C(F)(F)F)nn1-c1ccc(F)cc1)c1ncnn1-c1ncccn1 [Example I-052, 1-(4-fluorophenyl)-N-{(1S)-1-[1-(pyrimidin-2-yl)-1H-1,2,4-triazol-5-yl]ethyl}-3-(trifluoromethyl)-1H-pyrazole-5-carboxamide]",mortality at 100 ppm,[2],100%
same,pest or weed control at 0.02 mg,[6],100%
CC(NC(=O)c1cc(Cl)cc(C2CC2)c1)c1ncnn1-c1ccc(C#N)cn1 (stereo not drawn) [Example I-054],efficacy (seedlings grown),[1],100%
same,efficacy (fleas dead or moribund),[3],80%
"COC[C@H](NC(=O)c1cc(Cl)cc(S(C)(=O)=O)c1)c1ncnn1-c1ccc(C#N)cn1 [Example I-058, 3-chloro-N-{(1R)-1-[1-(5-cyanopyridin-2-yl)-1H-1,2,4-triazol-5-yl]-2-methoxyethyl}-5-(methylsulfonyl)benzamide]",mortality at 100 ppm,[2],100%
C[C@@H](NC(=O)c1cc(Cl)cc(SC(C)(C)C)c1)c1ncnn1-c1ncccn1 [Example I-060],"pest or weed control at 160 µg/disc, 160 µg/well",[1],100%
same,mortality at 100 ppm,[2],100%
same,mortality at 500 g/ha,[5],100%
C[C@H](NC(=O)c1cc(Cl)cc(S(C)(=O)=O)c1)c1ncnn1-c1ccc(SC(F)(F)F)cn1 [Example I-064],"pest or weed control at 160 µg/disc, 160 µg/well",[1],100%
same,mortality at 500 g/ha,[8],100%
CC(NC(=O)c1cc(Cl)cc(S(=O)(=O)C(F)(F)F)c1)c1ncnn1-c1ncc(Cl)cn1 (stereo not drawn) [Example I-069],efficacy (seedlings grown),[1],100%
same,efficacy (fleas dead or moribund),[3],100%
same,efficacy (infertile eggs),[6],100%
CC(NC(=O)c1cc(Cl)cc(S(=O)(=O)C(F)(F)F)c1)c1ncnn1-c1ccc(C(F)(F)F)cn1 (stereo not drawn) [Example I-072],efficacy (seedlings grown),[1],100%
same,efficacy (infertile eggs),[6],100%
CC(NC(=O)c1cc(Cl)cc(S(=O)(=O)C(F)(F)F)c1)c1ncnn1-c1ccc(Cl)cn1 (stereo not drawn) [Example I-073],efficacy (seedlings grown),[1],100%
same,efficacy (fleas dead or moribund),[3],90%
same,efficacy (infertile eggs),[6],100%
CC(NC(=O)c1cc(Cl)cc(S(=O)(=O)C(F)(F)F)c1)c1ncnn1-c1cc(C#N)ccn1 (stereo not drawn) [Example I-075],efficacy (seedlings grown),[1],100%
same,efficacy (fleas dead or moribund),[3],90%
same,efficacy (infertile eggs),[6],100%
C[C@@H](NC(=O)c1cc(Cl)cc(S(=O)(=O)C(F)(F)F)c1)c1ncnn1-c1ccnc(Cl)c1 [Example I-076],mortality at 100 ppm,[2],100%
same,pest or weed control at 0.02 mg,[6],100%
CC(NC(=O)c1cc(Cl)cc(S(=O)(=O)C(F)(F)F)c1)c1ncnn1-c1ncc(Cl)cc1F (stereo not drawn) [Example I-079],efficacy (seedlings grown),[1],100%
CC(NC(=O)c1cc(Cl)cc(S(=O)(=O)C(C)(C)C)c1)c1ncnn1-c1ncccn1 (stereo not drawn) [Example I-080],efficacy (infertile eggs),[6],80%
"C[C@H](NC(=O)c1cc(Cl)cc(NS(=O)(=O)c2ccccc2)c1)c1ncnn1-c1ncccn1 [Example I-086, 3-chloro-5-[(phenylsulfonyl)amino]-N-{(1S)-1-[1-(pyrimidin-2-yl)-1H-1,2,4-triazol-5-yl]ethyl}benzamide]",mortality at 4 ppm,[4],90%
C[C@@H](NC(=O)c1cc(Cl)cc(NC(=O)C2CC2)c1)c1ncnn1-c1ncccn1 [Example I-088],mortality at 100 ppm,[2],100%
CC(NC(=O)c1cc(Cl)cc(S(C)(=O)=O)c1)c1nc(C(F)(F)F)nn1-c1ccc(Cl)cn1 (stereo not drawn) [Example I-090],efficacy (seedlings grown),[1],100%
CC(NC(=O)c1cc(Cl)cc(S(=O)(=O)C(F)(F)F)c1)c1ncnn1-c1ncc(C(F)(F)F)cn1 (stereo not drawn) [Example I-097],efficacy (seedlings grown),[1],100%
CC(NC(=O)c1csc(Cl)c1)c1ncnn1-c1ncc(C(F)(F)F)cn1 (stereo not drawn) [Example I-098],efficacy (seedlings grown),[1],100%
same,efficacy (fleas dead or moribund),[3],90%
CC(NC(=O)c1cc(C(F)(F)F)cc(Cl)c1F)c1ncnn1-c1ncccn1 (stereo not drawn) [Example I-104],efficacy (seedlings grown),[1],100%
C[C@@H](NC(=O)c1cc(C2CC2)on1)c1ncnn1-c1ncccn1 [Example I-107],"pest or weed control at 160 µg/disc, 160 µg/well",[1],100%
same,mortality at 20 mg/m2,[9],80 to 100%
same,mortality at 500 g/ha,[5],100%
Cc1cnc(-n2ncnc2[C@@H](C)NC(=O)c2csc(Cl)c2)nc1 [Example I-109],mortality at 500 g/ha,[5],90%
CC(NC(=O)c1cccc(-c2ccc(OC(F)(F)F)cc2)c1)c1ncnn1-c1ncccn1 (stereo not drawn) [Example I-115],"pest or weed control at 160 µg/disc, 160 µg/well",[1],100%
C[C@H](NC(=O)c1cc(Cl)cc(S(C)(=O)=O)c1)c1ncnn1-c1cnc(C#N)cn1 [Example I-117],efficacy (seedlings grown),[1],100%
C[C@H](NC(=O)c1cc(Cl)cc(S(=O)(=O)C(F)(F)F)c1)c1ncnn1-c1ccc(F)cn1 [Example I-118],efficacy (seedlings grown),[1],100%
C[C@@H](c1ncnn1-c1ccc(C#N)cn1)N(CC1CC1)C(=O)c1cc(F)cc(C2CC2)c1 [Example I-121],efficacy (seedlings grown),[1],100%
C[C@H](NC(=O)c1cc(Br)cc(C(C)(C)C)c1)c1ncnn1-c1ncccn1 [Example I-125],efficacy (seedlings grown),[1],100%
